Results taken from US7037656B2, “Methods and compositions for identifying ligands for nuclear receptors” (priority 2000, dated 2006).

Experiments:
Assay in all cases: Yeast 6x EcRE-lacZ β-galactosidase transactivation assay
[1] = tested on: Cf ΔA/B EcR + RXR β + GRIP1; format: cell-based, Choristoneura fumiferana; mouse; conditions: RH 5992 10 μM, 4 hours, DMSO control 0.205
Method: The human RXR α (Genbank accession number X52773), mouse RXR β (Genbank accession number X66224) or mouse RXR γ (Genebank accession number X66225) subtypes were expressed in yeast-E. coli multicopy 2μ expression plasmids under regulation of CUP1 promoter with the LEU2 selective marker (1).
Briefly, yeast cells are cultured in 5 mL of YPD liquid medium overnight at 30° C. The cell culture was diluted 1:20 in YPD media and further grown until cell density reached an O.D of 0.6. at OD600. The cells were pelleted by centrifugation and washed with 10 mL of TE+0.1M lithium acetate. Cells are then resuspended in 10 mL TE+0.1M lithium acetate and incubated at 30° C. for 1 hour. Cells are collected and resuspended in 0.5 mL of TE+ 0.1M lithium acetate. Aliquots of cells (50 μL), were incubated for 15 minutes at 30° C. with 1–2 μg plasmid DNA in the presence of 5 μg of denatured salmon sperm DNA as DNA carrier. In the case of co-transformation, the indicated plasmids were added simultaneously. 50% polyethyleneglycol of molecular weight 4000, diluted in TE, was added to a final concentration of 35%. DMSO was added to the transformation solution simultaneously to a final concentration 3%. The samples were mixed well by vortexing and incubated for an additional 30 minutes at 30° C. The cell mixture is then heated for 15 minutes at 42° C. […]

[2] = tested on: Aa USPa; format: cell-based, Aedes aegypti; conditions: RH 5992 10 μM, 4 hours, DMSO control 0.210
Method: (§1) Briefly, yeast cells are cultured in 5 mL of YPD liquid medium overnight at 30° C. The cell culture was diluted 1:20 in YPD media and further grown until cell density reached an O.D of 0.6. at OD600. The cells were pelleted by centrifugation and washed with 10 mL of TE+0.1M lithium acetate. Cells are then resuspended in 10 mL TE+0.1M lithium acetate and incubated at 30° C. for 1 hour. Cells are collected and resuspended in 0.5 mL of TE+ 0.1M lithium acetate. Aliquots of cells (50 μL), were incubated for 15 minutes at 30° C. with 1–2 μg plasmid DNA in the presence of 5 μg of denatured salmon sperm DNA as DNA carrier. In the case of co-transformation, the indicated plasmids were added simultaneously. 50% polyethyleneglycol of molecular weight 4000, diluted in TE, was added to a final concentration of 35%. DMSO was added to the transformation solution simultaneously to a final concentration 3%. The samples were mixed well by vortexing and incubated for an additional 30 minutes at 30° C. The cell mixture is then heated for 15 minutes at 42° C. Cells were then collected and plated onto appropriate yeast selective media. Transformants of 4 plasmids are selected on the complete media without tryptophan, uracil, leucine and histidine.
(§2) The yeast cells grown overnight in selective liquid media at 30° C. were diluted in prewarmed liquid selective media to 0.1 at OD600 (ODculture). 100 μl of the cell culture was spiked to each well of a.96-well microtiter plate. Ligand (2 μl diluted in DMSO) was added to each well giving a final concentration of DMSO of 2%. As a control, 2 μl of DMSO were also added to additional test wells. The final concentration of the tested compounds in the media is 10 μM. The cells were incubated in the presence of ligand in a shaker at 30° C. After 4 hours of incubation, 100 μl of 2× “Z” Sarcosine-ONPG buffer (120 mM Na2HPO4, 80 mM NaH2PO4, 20 mM KCl, 2 mM MgSO4, 100 mM beta-mercaptoethanol (Sigma), pH 7.0, 0.4% lauroyl sarcosine (Sigma), 4 mg/mL ONPG (Diagnostic Chemicals limited) was added to each well and the plate was further incubated at 37° C. The 2× “Z” Sarcosine-ONPG buffer is freshly prepared or stored at −20° C. prior to use. After incubation at 37° C. for 1 hour. The reaction was stopped by adding 100 μL of quenching solution 0.5 M Na2CO3 and OD405 (ODreaction) and beta-galactosidase activity was measured in a micro plate reader (Biotek) at a wave length of 405–450 nanometers. The effect of copper on enhancement of the transactivation response mediated by the ligands tested was studied by adding CuSO4 to the media to a final concentration of 10 μM.
(§3) Using the transformation method described above, yeast were co-transformed with a reporter gene as shown in FIG. 2 and the expression vector encoding the full-length Aedes aegypti ecdysone receptor, Aa EcR (FIG. 7A) in the presence or absence of the Aa EcR heterodimer partner, Aa USP (a or b form, FIGS. 8A and 8B respectively). Transformed cells were incubated with DMSO alone as a control, or with a proprietary ecdysone receptor ligand (Rohm & Haas tebufenozide[RH5992]) at final concentration 10 μM for 4 hours. The samples were then assayed for β-galactosidase activity as described above. […] As the N-terminal portion of the AaEcR receptor is reported to play a role in ligand independent transactivation, an expression vector containing an N-terminal deletion in the Aa EcR was constructed (see FIG. 7B) and assessed in the β-galactosidase assays described above. […] Restoration of ligand dependent transactivation was observed only when the AaΔN EcR, AaUSP (a or b forms) and co-activator GRIP1 were coexpressed. As in the Drosophila system, the data obtained indicate that the efficiency of ligand-dependent transactivation of the ecdysone receptor in mosquito A. aegypti is dependent on the both heterodimer formation of EcR/USP and also upon proper interaction with co-activator GRIP1.

[3] = tested on: Aa USPb; format: cell-based, Aedes aegypti; conditions: RH 5992 10 μM, 4 hours, DMSO control 0.196
Method: as §1, §2, §3

[4] = tested on: Aa ΔA/B EcR + Aa ΔA/B USP; format: cell-based, Aedes aegypti; conditions: RH 5992 10 μM, 4 hours, DMSO control 0.187
Method: as §1, §2, §3

[5] = tested on: Aa ΔA/B EcR + Aa ΔA/B USP + GRIP1; format: cell-based, Aedes aegypti; conditions: RH 5992 10 μM, 4 hours, DMSO control 0.194
Method: as §1, §2, §3

[6] = tested on: Aa ΔA/B EcR + Aa USPa; format: cell-based, Aedes aegypti; conditions: 4 hours
Method: as §1, §2, §3

[7] = tested on: Aa EcR + Aa USPb; format: cell-based, Aedes aegypti; conditions: RH 5992 10 μM, 4 hours, DMSO control 3.000
Method: as §1, §2, §3

[8] = tested on: Aa EcR + Aa USPa; format: cell-based, Aedes aegypti; conditions: RH 5992 10 μM, 4 hours, DMSO control 2.300
Method: as §1, §2, §3

CCc1ccc(C(=O)NN(C(=O)c2cc(C)cc(C)c2)C(C)(C)C)cc1 [RH 5992, tebufenozide]
β-galactosidase activity [1]: 0.456 | β-galactosidase activity [2]: 0.223 | β-galactosidase activity [3]: 0.210 | β-galactosidase activity [4]: 0.196 | β-galactosidase activity [5]: 1.370 | transactivation of the reporter gene (in words) ([6]; 10 μM, Aa EcR with N-terminal deletion, Aa USP present or absent, no GRIP1): incapable of transactivating the reporter gene | β-galactosidase activity ([6]; RH 5992 10 μM, yeast, Aa ΔA/B EcR + Aa USPa, DMSO control 0.194): 0.209 | β-galactosidase activity [7]: 2.700 | β-galactosidase activity [8]: 2.453
